Data reported in the supplement of paper PMC10307832.

What was measured:
Assay in all cases: relative viability (nuclei count vs DMSO), 5 days (fraction); higher = more cells survive
NCI-H358 = tested on: NCI-H358
How it was run: (§1)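 Lung cancer cell lines were pin-tool dosed in 1536-well plates on the day after seeding, with either a lone drug or a fixed anchor-drug dose plus five library-drug doses (not always all listed) in √10 steps. Nuclei were counted on 4× images after 5 days. Relative viability is the ratio of treated-well to vehicle-well nuclei counts, with each value a median of duplicate plates.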

NCI-H1915 = tested on: NCI-H1915
How it was run: as §1

PC-3 [JPC-3] = tested on: PC-3 [JPC-3]
How it was run: as §1

LOU-NH91 = tested on: LOU-NH91
How it was run: as §1

NCI-H2126 = tested on: NCI-H2126
How it was run: as §1

NCI-H460 = tested on: NCI-H460
How it was run: as §1

NCI-H522 = tested on: NCI-H522
How it was run: as §1

NCI-H2347 = tested on: NCI-H2347
How it was run: as §1

NCI-H647 = tested on: NCI-H647
How it was run: as §1

HOP-62 = tested on: HOP-62
How it was run: as §1

RERF-LC-KJ = tested on: RERF-LC-KJ
How it was run: as §1

NCI-H2342 = tested on: NCI-H2342
How it was run: as §1

NCI-H1755 = tested on: NCI-H1755
How it was run: as §1

HCC-15 = tested on: HCC-15
How it was run: as §1

A-427 = tested on: A-427
How it was run: as §1

NCI-H1734 = tested on: NCI-H1734
How it was run: as §1

LXF-289 = tested on: LXF-289
How it was run: as §1

LC-2-ad = tested on: LC-2-ad
How it was run: as §1

SW 1573 = tested on: SW 1573
How it was run: as §1

SK-LU-1 = tested on: SK-LU-1
How it was run: as §1

NCI-H1792 = tested on: NCI-H1792
How it was run: as §1

NCI-H1975 = tested on: NCI-H1975
How it was run: as §1

HCC-78 = tested on: HCC-78
How it was run: as §1

CC(C)Oc1cc(Nc2nc(N[C@@H](C)c3ccc(F)cn3)ncc2Cl)n[nH]1 [AZ23] + Nc1ncn([C@H]2C[C@H](O)[C@@H](CO)O2)c(=O)n1 [Decitabine] (partner 2 µM)
relative viability (NCI-H358; first compound 0.01 µM): 0.261 | relative viability (NCI-H358; first compound 0.03162 µM): 0.214 | relative viability (NCI-H358; first compound 0.3162 µM): 0.179 | relative viability (NCI-H1915; first compound 0.01 µM): 0.293 | relative viability (NCI-H1915; first compound 0.03162 µM): 0.272 | relative viability (NCI-H1915; first compound 0.3162 µM): 0.269 | relative viability (PC-3 [JPC-3]; first compound 0.01 µM): 0.812 | relative viability (PC-3 [JPC-3]; first compound 0.03162 µM): 0.851 | relative viability (PC-3 [JPC-3]; first compound 0.3162 µM): 0.885 | relative viability (LOU-NH91; first compound 0.01 µM): 0.817 | relative viability (LOU-NH91; first compound 0.03162 µM): 0.888 | relative viability (LOU-NH91; first compound 0.3162 µM): 0.818 | relative viability (NCI-H2126; first compound 0.01 µM): 0.612 | relative viability (NCI-H2126; first compound 0.03162 µM): 0.615 | relative viability (NCI-H2126; first compound 0.3162 µM): 0.558 | relative viability (NCI-H460; first compound 0.01 µM): 0.489 | relative viability (NCI-H460; first compound 0.03162 µM): 0.514 | relative viability (NCI-H460; first compound 0.3162 µM): 0.55 | relative viability (NCI-H522; first compound 0.01 µM): 0.701 | relative viability (NCI-H522; first compound 0.03162 µM): 0.736 | relative viability (NCI-H522; first compound 0.3162 µM): 0.679 | relative viability (NCI-H2347; first compound 0.01 µM): 0.652 | relative viability (NCI-H2347; first compound 0.03162 µM): 0.571 | relative viability (NCI-H2347; first compound 0.3162 µM): 0.625 | relative viability (NCI-H647; first compound 0.01 µM): 0.364 | relative viability (NCI-H647; first compound 0.03162 µM): 0.415 | relative viability (NCI-H647; first compound 0.3162 µM): 0.41 | relative viability (HOP-62; first compound 0.01 µM): 0.282 | relative viability (HOP-62; first compound 0.03162 µM): 0.21 | relative viability (HOP-62; first compound 0.3162 µM): 0.195 | relative viability (RERF-LC-KJ; first compound 0.01 µM): 0.783 | relative viability (RERF-LC-KJ; first compound 0.03162 µM): 0.74 | relative viability (RERF-LC-KJ; first compound 0.3162 µM): 0.817 | relative viability (NCI-H2342; first compound 0.01 µM): 0.716 | relative viability (NCI-H2342; first compound 0.03162 µM): 0.778 | relative viability (NCI-H2342; first compound 0.3162 µM): 0.649 | relative viability (NCI-H1755; first compound 0.01 µM): 0.844 | relative viability (NCI-H1755; first compound 0.03162 µM): 0.705 | relative viability (NCI-H1755; first compound 0.3162 µM): 0.697 | relative viability (HCC-15; first compound 0.01 µM): 0.654 | relative viability (HCC-15; first compound 0.03162 µM): 0.596 | relative viability (HCC-15; first compound 0.3162 µM): 0.663 | relative viability (A-427; first compound 0.01 µM): 0.508 | relative viability (A-427; first compound 0.03162 µM): 0.558 | relative viability (A-427; first compound 0.3162 µM): 0.591 | relative viability (NCI-H1734; first compound 0.01 µM): 0.532 | relative viability (NCI-H1734; first compound 0.03162 µM): 0.521 | relative viability (NCI-H1734; first compound 0.3162 µM): 0.482 | relative viability (LXF-289; first compound 0.01 µM): 0.469 | relative viability (LXF-289; first compound 0.03162 µM): 0.374 | relative viability (LXF-289; first compound 0.3162 µM): 0.403 | relative viability (LC-2-ad; first compound 0.01 µM): 1.01 | relative viability (LC-2-ad; first compound 0.03162 µM): 0.862 | relative viability (LC-2-ad; first compound 0.3162 µM): 0.782 | relative viability (SW 1573; first compound 0.01 µM): 0.699 | relative viability (SW 1573; first compound 0.03162 µM): 0.553 | relative viability (SW 1573; first compound 0.3162 µM): 0.612 | relative viability (SK-LU-1; first compound 0.03162 µM): 0.651 | relative viability (SK-LU-1; first compound 0.3162 µM): 0.643 | relative viability (NCI-H1792; first compound 0.01 µM): 0.462 | relative viability (NCI-H1792; first compound 0.03162 µM): 0.549 | relative viability (NCI-H1792; first compound 0.3162 µM): 0.48 | relative viability (NCI-H1975; first compound 0.01 µM): 0.409 | relative viability (NCI-H1975; first compound 0.03162 µM): 0.451 | relative viability (NCI-H1975; first compound 0.3162 µM): 0.414 | relative viability (HCC-78; first compound 0.01 µM): 0.725 | relative viability (HCC-78; first compound 0.03162 µM): 0.777 | relative viability (HCC-78; first compound 0.3162 µM): 0.728

CC(C)Oc1cc(Nc2nc(N[C@@H](C)c3ccc(F)cn3)ncc2Cl)n[nH]1 [AZ23] + NC(=O)Nc1cc(-c2cccc(F)c2)sc1C(=O)N[C@H]1CCCNC1 [AZD7762] (partner 0.2 µM)
relative viability (NCI-H358; first compound 0.01 µM): 0.447 | relative viability (NCI-H358; first compound 0.03162 µM): 0.653 | relative viability (NCI-H358; first compound 0.3162 µM): 0.514 | relative viability (NCI-H1915; first compound 0.01 µM): 0.758 | relative viability (NCI-H1915; first compound 0.03162 µM): 0.737 | relative viability (NCI-H1915; first compound 0.3162 µM): 0.796 | relative viability (PC-3 [JPC-3]; first compound 0.01 µM): 0.663 | relative viability (PC-3 [JPC-3]; first compound 0.03162 µM): 0.837 | relative viability (PC-3 [JPC-3]; first compound 0.3162 µM): 0.77 | relative viability (LOU-NH91; first compound 0.01 µM): 0.777 | relative viability (LOU-NH91; first compound 0.03162 µM): 0.853 | relative viability (LOU-NH91; first compound 0.3162 µM): 0.803 | relative viability (NCI-H2126; first compound 0.01 µM): 1.04 | relative viability (NCI-H2126; first compound 0.03162 µM): 1.07 | relative viability (NCI-H2126; first compound 0.3162 µM): 1.07 | relative viability (NCI-H460; first compound 0.01 µM): 0.722 | relative viability (NCI-H460; first compound 0.03162 µM): 0.751 | relative viability (NCI-H460; first compound 0.3162 µM): 0.799 | relative viability (NCI-H522; first compound 0.01 µM): 0.935 | relative viability (NCI-H522; first compound 0.03162 µM): 0.95 | relative viability (NCI-H522; first compound 0.3162 µM): 0.809 | relative viability (NCI-H2347; first compound 0.01 µM): 0.718 | relative viability (NCI-H2347; first compound 0.03162 µM): 0.818 | relative viability (NCI-H2347; first compound 0.3162 µM): 0.782 | relative viability (NCI-H647; first compound 0.01 µM): 0.296 | relative viability (NCI-H647; first compound 0.03162 µM): 0.615 | relative viability (NCI-H647; first compound 0.3162 µM): 0.806 | relative viability (HOP-62; first compound 0.01 µM): 0.493 | relative viability (HOP-62; first compound 0.03162 µM): 0.804 | relative viability (HOP-62; first compound 0.3162 µM): 0.863 | relative viability (RERF-LC-KJ; first compound 0.01 µM): 1.09 | relative viability (RERF-LC-KJ; first compound 0.03162 µM): 1.02 | relative viability (RERF-LC-KJ; first compound 0.3162 µM): 1.11 | relative viability (NCI-H2342; first compound 0.01 µM): 0.442 | relative viability (NCI-H2342; first compound 0.03162 µM): 0.569 | relative viability (NCI-H2342; first compound 0.3162 µM): 0.483 | relative viability (NCI-H1755; first compound 0.01 µM): 0.413 | relative viability (NCI-H1755; first compound 0.03162 µM): 0.471 | relative viability (NCI-H1755; first compound 0.3162 µM): 0.477 | relative viability (HCC-15; first compound 0.01 µM): 1.43 | relative viability (HCC-15; first compound 0.03162 µM): 1.34 | relative viability (HCC-15; first compound 0.3162 µM): 1.35 | relative viability (A-427; first compound 0.01 µM): 0.462 | relative viability (A-427; first compound 0.03162 µM): 0.724 | relative viability (A-427; first compound 0.3162 µM): 1.01 | relative viability (NCI-H1734; first compound 0.01 µM): 0.602 | relative viability (NCI-H1734; first compound 0.03162 µM): 0.688 | relative viability (NCI-H1734; first compound 0.3162 µM): 0.795 | relative viability (LXF-289; first compound 0.01 µM): 1.14 | relative viability (LXF-289; first compound 0.03162 µM): 1.24 | relative viability (LXF-289; first compound 0.3162 µM): 1.27 | relative viability (LC-2-ad; first compound 0.01 µM): 1.04 | relative viability (LC-2-ad; first compound 0.03162 µM): 1.05 | relative viability (LC-2-ad; first compound 0.3162 µM): 1.02 | relative viability (NCI-H1792; first compound 0.01 µM): 0.595 | relative viability (NCI-H1792; first compound 0.03162 µM): 0.515 | relative viability (NCI-H1792; first compound 0.3162 µM): 0.904 | relative viability (NCI-H1975; first compound 0.01 µM): 0.555 | relative viability (NCI-H1975; first compound 0.03162 µM): 0.799 | relative viability (NCI-H1975; first compound 0.3162 µM): 0.828 | relative viability (HCC-78; first compound 0.01 µM): 0.516 | relative viability (HCC-78; first compound 0.03162 µM): 0.697 | relative viability (HCC-78; first compound 0.3162 µM): 0.681
